How the values were obtained:
[1] = molecular target: T1, TRX-m4 (Arabidopsis thaliana, UniProt Q9SEU6); assay: coupled GPXL8 H2O2 reduction, NADPH oxidation at […] nm; format: biochemical; details: covalent; 20 µM reduced protein preincubated with 150 µM OPDA 1 h, then 5 µM in NTRA/GPXL8 assay, pH 7.5
T1 construct: gene At3g15360; His-tagged, E. coli, Ni-NTA
T1 sequence (Q9SEU6 83-193): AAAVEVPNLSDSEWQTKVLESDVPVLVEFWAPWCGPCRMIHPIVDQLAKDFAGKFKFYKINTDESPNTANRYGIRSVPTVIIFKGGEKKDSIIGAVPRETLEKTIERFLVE

[2] = molecular target: T2, TRX-h5 (Arabidopsis thaliana, UniProt Q39241); assay: HPLC depletion of free OPDA, mPEG-maleimide shift; format: binding; details: covalent; 200 µM OPDA, 50 or 100 µM reduced protein, pH 7.2, at least 2 h, RT
T2 construct: gene TRX5
T2 sequence (Q39241 1-118 limits assumed): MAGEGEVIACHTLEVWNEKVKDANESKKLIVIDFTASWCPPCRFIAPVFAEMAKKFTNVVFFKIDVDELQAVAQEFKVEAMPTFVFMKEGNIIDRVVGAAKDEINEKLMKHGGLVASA

[3] = molecular target: T3, PRXIIB (Arabidopsis thaliana, UniProt Q9XEX2); assay: coupled H2O2 reduction (GR/GSH/GRXC2), NADPH oxidation at […] nm; format: biochemical; details: 20 µM reduced PRXIIB preincubated with 150 µM OPDA 1 h, then 3 µM in assay, pH 7.5; weak effect
T3 sequence (Q9XEX2 1-162): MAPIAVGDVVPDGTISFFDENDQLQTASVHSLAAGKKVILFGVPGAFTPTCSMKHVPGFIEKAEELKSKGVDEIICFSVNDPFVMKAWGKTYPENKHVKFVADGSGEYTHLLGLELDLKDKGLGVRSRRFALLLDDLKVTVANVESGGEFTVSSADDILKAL

[4] = molecular target: T2, TRX-h5; assay: coupled GPXL8 H2O2 reduction, NADPH oxidation at […] nm; format: biochemical; details: covalent; 20 µM reduced protein preincubated with 150 µM OPDA 1 h, then 0.25 µM in NTRA/GPXL8 assay, pH 7.5
[5] = molecular target: T4, TRX-h3 (Arabidopsis thaliana, UniProt Q42403); assay: as above; format: biochemical; details: covalent; 20 µM reduced protein preincubated with 150 µM OPDA 1 h, then 0.25 µM in NTRA/GPXL8 assay, pH 7.5
T4 construct: gene TRX3
T4 sequence (Q42403 1-118 limits assumed): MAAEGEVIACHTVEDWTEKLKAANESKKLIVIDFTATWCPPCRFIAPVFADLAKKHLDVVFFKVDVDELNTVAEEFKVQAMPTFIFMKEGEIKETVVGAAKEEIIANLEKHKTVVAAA

[6] = molecular target: T1, TRX-m4; assay: HPLC depletion of free OPDA, mPEG-maleimide shift; format: binding; details: covalent; 200 µM OPDA, 50 or 100 µM reduced protein, pH 7.2, at least 2 h, RT
[7] = molecular target: T5, TRX-f1 (Arabidopsis thaliana, UniProt Q9XFH8); assay: HPLC depletion of free OPDA, mPEG-maleimide shift; format: binding; details: covalent; 200 µM OPDA, 50 or 100 µM reduced protein, pH 7.2, at least 2 h, RT
T5 construct: gene At3g02730; His-tagged, E. coli, Ni-NTA
T5 sequence (Q9XFH8 58-178): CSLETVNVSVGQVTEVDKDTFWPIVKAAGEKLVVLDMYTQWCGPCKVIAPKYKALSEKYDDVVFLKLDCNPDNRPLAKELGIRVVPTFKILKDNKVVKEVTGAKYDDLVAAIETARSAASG

[8] = molecular target: T6, GRX-C2 (Arabidopsis thaliana, UniProt Q9FNE2); assay: HED assay, NADPH oxidation at […] nm; format: biochemical; details: 2 mM GSH, 0.7 mM HED, 1 µM GR, 0.1 µM GRX, pH 7.5, RT
T6 construct: gene GRXC2

[9] = molecular target: T7, GAPC2 (Arabidopsis thaliana, UniProt Q9FX54); assay: NADH consumption at […] nm, PGK-coupled; format: biochemical; details: 8 mM 3-PGA, 4 mM ATP, 90 nM PGK, pH 7.8, RT
T7 construct: His10-tagged, E. coli, Ni-NTA
T7 sequence (Q9FX54 whole entry): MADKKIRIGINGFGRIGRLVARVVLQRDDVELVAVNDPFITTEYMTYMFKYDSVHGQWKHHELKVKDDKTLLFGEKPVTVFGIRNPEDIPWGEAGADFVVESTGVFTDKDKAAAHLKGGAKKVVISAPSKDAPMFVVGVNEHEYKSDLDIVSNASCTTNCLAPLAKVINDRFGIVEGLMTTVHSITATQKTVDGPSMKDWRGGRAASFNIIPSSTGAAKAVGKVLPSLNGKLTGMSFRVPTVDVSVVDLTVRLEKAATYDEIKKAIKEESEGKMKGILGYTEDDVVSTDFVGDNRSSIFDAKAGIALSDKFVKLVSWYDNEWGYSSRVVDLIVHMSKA

T6 sequence (Q9FNE2 whole entry): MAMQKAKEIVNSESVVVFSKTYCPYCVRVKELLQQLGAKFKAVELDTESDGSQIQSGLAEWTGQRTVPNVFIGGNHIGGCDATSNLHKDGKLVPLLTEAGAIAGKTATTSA

CC/C=C\C[C@@H]1C(=O)C=C[C@@H]1CCCCCCCC(=O)O [OPDA, cis-(+)-12-oxophytodienoic acid]
inhibition [1]: ~ 60% | HPLC depletion of free OPDA, mPEG-maleimide shift [2]: two thiols reacted with OPDA in the case of TRX-h3 and TRX-h5 | inhibition [3]: OPDA seems to act directly on PRXIIB at a low level | inhibition [4]: ~ 80% | inhibition [5]: ~ 80% | HPLC depletion of free OPDA, mPEG-maleimide shift [6]: three thiols in the case of TRX-f1 and TRX-m4 | HPLC depletion of free OPDA, mPEG-maleimide shift [7]: three thiols in the case of TRX-f1 and TRX-m4

OCCSSCCO [HED, hydroxyethyldisulfide]
HED assay, NADPH oxidation at 340 nm [8]: HED assay to determine GRX-dependent reduction activity

NC(=O)C1=CN([C@@H]2O[C@H](COP(=O)(O)OP(=O)(O)OC[C@H]3O[C@@H](n4cnc5c(N)ncnc54)[C@H](O)[C@@H]3O)[C@@H](O)[C@H]2O)C=CC1 [NADH]
NADH consumption at 340 nm, PGK-coupled [9]: coupled activity of phosphoglycerate kinase and GAPDH was measured as consumption of NADH
